Earlier results on 2 compounds are cited in US20220273822A1, “ANIMAL MODEL OF IDIOPATHIC PULMONARY FIBROSIS, ITS CONSTRUCTION METHOD AND USE” (National Institute of Biological Sciences, Beijing, priority 2019, published 2022).

For this data set the following is noted: IPF.

For the compound `COC(=O)c1ccc2c(c1)NC(=O)/C2=C(\Nc1ccc(N(C)C(=O)CN2CCN(C)CC2)cc1)c1ccccc1` [nintedanib], the mortality result is “tendency of reducing mortality” and the survival time entry is listed as “failed to show significantly increased survival time”.
As for `Cc1ccc(=O)n(-c2ccccc2)c1` [pirfenidone], the mortality entry is “tendency of reducing mortality” and the survival time result is “failed to show significantly increased survival time”.
